Values of other authors in patent US20070160542A1, “Methods and systems for the delivery of corticosteroids having an enhanced pharmacokinetic profile” (Verus Pharmaceuticals, Inc., priority 2005, published 2007).

solubility in alcohols: readily soluble | solubility in water: virtually insoluble
Compound: CCCC1O[C@@H]2C[C@H]3[C@@H]4CCC5=CC(=O)C=C[C@]5(C)[C@H]4[C@@H](O)C[C@]3(C)[C@]2(C(=O)CO)O1 (stereo partly drawn) [budesonide, (R,S)-11β,16α,17,21-tetrahydroxypregna-1,4-diene-3,20-dione cyclic 16,17-acetal with butyraldehyde]
